The subject of experiment [1] is AKT phosphorylation and Mig6 expression. Briefly: Immunoblot analysis of AKT phosphorylation and Mig6 after TGFβ blockade. The experiment is classed as cell-based, human. The note with it: H1703 and JHU028 cells, TGFβ (2 ng/ml) plus SB-431542 (10 μM) for 7 days. On the procedure:
(§1) Two erlotinib-resistant cell lines (JHU028 and H1703) were treated with TGFβ (2 ng/ml) alone or in combination with SB-431542 (10 μM) for 7 days. A. Cell lysates were collected and subjected to immunoblot analysis with indicated antibodies. B. Levels of miR200c and miR205 were measured and relative expression is presented as ΔΔCt. C. […] Cell viability was assayed and values were set at 100% for untreated controls.
(§2) Antibodies and immunoblot analysis. Pelleted cells were lysed on ice by adding RIPA lysis buffer (Thermo Scientific, Rockford, Ill.) supplemented with protease and phosphatase inhibitors (Roche, Basel, Switzerland). Protein concentrations were determined by the BCA method and lysates diluted in SDS sample buffer (Bio-Rad, Hercules, Calif.) prior to SDS-PAGE. Anti-Mig6 antibody was a gift from Dr. Ferby (Nature medicine. 2006; 12:568-73). β-actin was obtained from Abcam (Cambridge, Mass.). All other antibodies were obtained from Cell Signaling (Beverly, Mass.). Secondary horseradish peroxidase (HRP)-conjugated antibodies were from KPL (Gaithersburg, Md.) and signals developed using West-Pico chemiluminescence substrate (Thermo Scientific). ImageJ (ver 1.46) software was used to quantify immunoblot signals on exposed films.
Autocrine or paracrine TGF3 signaling is required for the maintenance of the mesenchymal state. […]

Experiment [2] relates to miR200c and miR205. Briefly: Quantitative real-time PCR for miR200c and miR205 after TGFβ blockade. The note with it: H1703 and JHU028 cells, TGFβ (2 ng/ml) plus SB-431542 (10 μM) for 7 days. The experiment is classed as cell-based, human. On the procedure: as §1
(§3) Quantitative real-time PCR for miRNA. RNA from cultured cells was extracted using the mirVana™ Kit (Ambion, Austin, Tex.). Total RNA from fresh frozen tumors was isolated using the Trizol reagent (Invitrogen, Carlsbad, Calif.). Specific quantitative real-time PCR was carried out using TaqMan MicroRNA Assays for miR200a, miR200b, miR200c, miR205 and control RNU6b (Applied Biosystems, Foster City, Calif.) on a 7900HT detector (Applied Biosystems, Foster City, Calif.).
(§4) Autocrine or paracrine TGF3 signaling is required for the maintenance of the mesenchymal state. Blockage of this signaling can inhibit or reverse EMT by upregulating miR200 and subsequently downregulating ZEB1/2 (28-31). As a corollary to this observation, over-expression of miR-200c restores the sensitivity of resistant NSCLC cells to the anti-EGFR antibody cetuximab. […]

Experiment [3] concerns JHU028 and H1703 erlotinib-resistant cell lines. Nature of the experiment: Cell viability assay, erlotinib sensitivity after TGFβ blockade. It counts as cell-based, human. Conditions: TGFβ plus inhibitor (SB-431542 10 μM or TGFβ RII/Fc 20 ng/ml) 7 days, then 1 μM erlotinib 72 hours. How it is done:
as §1
Cell viability assay. Relative cell viability was determined using an Alamar Blue assay as outlined by the manufacturer (AbDSerotec, Raleigh, N.C.). New media containing 1/10 volume of Alamar Blue reagent was added to the wells and cells were incubated at 37° C. for 1 hour. Fluorescence (545 nm excitation, 590 nm emission wavelengths) was measured using a SpectraMax Plus384 fluorometer (Sunnyvale, Calif.). Cell viability was calculated relative to an untreated culture of cells incubated in parallel.
as §4

The subject of experiment [4] is Mig6. Briefly: Immunoblot analysis of Mig6 after inhibitor exposure in parental and TGFβ-induced H358 cells. The experiment is classed as cell-based, human. The note with it: 24 hours exposure. How it is done:
A. Protein lysates were extracted from indicated cell lines Immunoblot analysis was performed with antibodies against E-cadherin, vimentin and β-actin. […] C. […] Cells were collected at different time points and Immunoblot analysis was performed with indicated antibodies. […] Values were set at 100% for untreated controls. […] F. Protein lysates were extracted from H358 cells treated with TGFβ1 or control vehicle for 21 days and immunoblot analysis was performed with antibodies against indicated RTKs. β-actin was used as a loading control.
as §2, with “films. […]” for “films.”

Experiment [5] deals with directly xenografted human NSCLC tumors. Briefly: Erlotinib response of directly xenografted primary human tumors in nude mice. The experiment is classed as in vivo. Conditions: lung tumors CTG-0167, CTG-0502, CTG-0199 and CTG-0157 with low EGFR and Mig6 expression, Erlotinib 35 mg/kg. From the text:
Xenograft generation. […] The animals were maintained in accordance to guidelines of the American Association of Laboratory Animal Care and the research protocol was approved by the Johns Hopkins University Animal Use and Care Committee.
We obtained 18 human NSCLCs, and 27 pancreatic tumors that were directly xenografted into nude mice. No erlotinib-sensitizing mutations in EGFR were detected in any of these tumors and there was no correlation of KRAS mutation with erlotinib response. For all models tested, miR200 levels were measured by quantitative RT-PCR and mRNA levels of Mig6 and EGFR were determined by Affymetrix expression array. […] Supporting this observation, an inverse correlation between miR200c and Mig6 expression levels was noted across the pancreatic models (data not shown). […] Unlike the limited predictive ability of the Mig6/EGFR ratio in such tumors with low EGFR expression, the Mig6(mRNA)/miR200c ratio was still able to correctly identify three out of four of these lung tumors with low EGFR mRNA as erlotinib-resistant. Therefore, the ratio of Mig6 to miR200 was a reliable predictive biomarker of the primary tumors response to EGFR TKIs regardless of their EGFR status.

In experiment [6] the test system is miR200 family members (200a, 200b, 200c and 205). Nature of the experiment: Real-time PCR of miR200 family after exposure to TGFβ. It counts as cell-based, human. Conditions: SCC-S, H358 and H292 cells, exposure for 21 days. How it is done: RNA was extracted and expression levels of miR200a, miR200b, miR200c and miR205 were quantified by real-time PCR. B. RNA was extracted from four sensitive/resistant cancer cell lines pairs. Levels of miR200a, miR200b, miR200c and miR205 were measured and relative expression is presented as average fold change of each miRNA in erlotinib-sensitive cell lines relatively to that in resistant cells, which was given a value 1. […] Relative quantification of miRNA expression was performed by using RNU6b as an internal control. The results are presented as expression average of each miRNA in erlotinib-sensitive cell lines relatively to that in erlotinib-resistant cells.
as §3
We next examined changes in miR200 levels in erlotinib-sensitive (SCC-S) and erlotinib-resistant (SCC-R) isogenic H&N cell lines.

Experiment [7] relates to SCC-S, H358 and H292 erlotinib-sensitive epithelial cell lines. Briefly: TGFβ-induced EMT, immunoblot of EMT markers and kinases. It counts as cell-based, human. How it is done:
FIGS. 2A-2F depict that increased production of TGFβ induces an EMT-associated kinase switch which promotes erlotinib-resistance of tumor cells. A. Protein lysates were extracted from indicated cell lines Immunoblot analysis was performed with antibodies against E-cadherin, vimentin and β-actin. B. Tumor cell supernatants of 25 cancer cell lines shown in A were collected and differential levels of TGFβ production were analyzed by ELISA. C. […] Cells were collected at different time points and Immunoblot analysis was performed with indicated antibodies. […] Values were set at 100% for untreated controls. […]
Antibodies and immunoblot analysis. […] Protein concentrations were determined by the BCA method and lysates diluted in SDS sample buffer (Bio-Rad, Hercules, Calif.) prior to SDS-PAGE. […] ImageJ (ver 1.46) software was used to quantify immunoblot signals on exposed films.
Increased production of TGFβ induces an EMT-associated kinase switch that promotes erlotinib-resistance of tumor cells. […] To test whether TGFβ can promote this kinase switch, levels of phospho IGFR, PDGFR, FGFR and FAK kinases were assessed in response to treatment of erlotinib-sensitive cells (H358, H292 and SCC-S) with TGFβ1 for 21 days.

On to `NC(=O)c1ccc(-c2nc(-c3ccc4c(c3)OCO4)c(-c3ccccn3)[nH]2)cc1` [SB-431542], for which, in experiment [1], the AKT phosphorylation entry was “downregulation” and the Mig6 expression result is on record as “downregulation”. Also, in experiment [2], the miR200c levels result was “significant increase” and the miR205 levels entry is “significant increase”. Further, the “sensitivity of tumor cells to erlotinib” value in experiment [3] is recorded as “increased the sensitivity of tumor cells to erlotinib”.

Take `N#CC(=C(/N)Sc1ccccc1N)/C(C#N)=C(\N)Sc1ccccc1N` [U0126]: the “basal expression of Mig6” value in experiment [4] was “reduced basal expression of Mig6”.

On to `C#Cc1cccc(Nc2ncnc3cc(OCCOC)c(OCCOC)cc23)c1` [erlotinib], for which the “erlotinib response of lung tumor xenografts” value in experiment [5] is “erlotinib-resistant”. In experiment [4], the “basal expression of Mig6” value is “reduced basal expression of Mig6”.

Consider TGFβ, for which the “expression of the miR200 family members (200a, 200b, 200c and 205)” value in experiment [6] was “significantly reduced”. Moreover, in experiment [7] (time course 1-21 days, TGF-β1 or TGF-β3, SCC-S, H358 and H292 cells), the “EMT markers (loss of E-cadherin and upregulation of vimentin)” value is “complete EMT by day 14”.

With “TGFβ1: TGFβ isoform used to treat erlotinib-sensitive cells for 21 days”, the “levels of phospho IGFR, PDGFR, FGFR and FAK kinases” value in experiment [7] (H358, H292 and SCC-S cells, TGFβ1 for 21 days, compared to untreated counterparts) was “significantly greater activity”.

The values above are taken from US10801071B2, “TGF(β)-MIR200-MIG6 pathway and its use in the treatment of cancer as an indicator of resistance to EGFR inhibitors” (THE JOHNS HOPKINS UNIVERSITY, priority 2014, dated 2020).
